Results published in BindingDB's records for doi:10.7270/Q2VX0F3D (Burnham Center For Chemical Genomics, 2012).

Target: T1, Corticotropin-releasing factor-binding protein (Homo sapiens, UniProt P24387)
T1 sequence (P24387 whole entry): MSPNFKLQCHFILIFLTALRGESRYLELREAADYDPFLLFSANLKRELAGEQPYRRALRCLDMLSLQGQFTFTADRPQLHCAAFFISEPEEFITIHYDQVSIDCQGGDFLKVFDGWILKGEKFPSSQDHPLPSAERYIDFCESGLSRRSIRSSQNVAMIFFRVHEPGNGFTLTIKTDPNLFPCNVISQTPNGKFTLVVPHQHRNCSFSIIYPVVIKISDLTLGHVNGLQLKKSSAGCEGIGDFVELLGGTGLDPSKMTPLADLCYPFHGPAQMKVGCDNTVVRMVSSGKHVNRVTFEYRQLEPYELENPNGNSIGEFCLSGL
Assay: activators of CRF receptor 2 with binding protein – uHTS hits, confirmation (AID 602473)

| Structure (SMILES) | EC50 |
| --- | --- |
| COc1ccc(C2=c3cc(F)ccc3=NC(c3ccco3)=NN2)cc1 [7-fluoranyl-2-(furan-2-yl)-5-(4-methoxyphenyl)-4H-1,3,4-benzotriazepine] | > 53 µM |
| COC(=O)C1=C(C)N=C(C)C(C(=O)OC)C1/C=C/c1ccccc1 (stereo not given) [MLS000571366] | > 53 µM |
| Cc1ccc2oc(=O)c(CC(=O)c3ccccc3)nc2c1 [(3Z)-6-methyl-3-(2-oxo-2-phenylethylidene)-3,4-dihydro-2H-1,4-benzoxazin-2-one] | 12.1 µM |
| COc1ccc(C2=Nc3nnnn3C(c3ccc(C)cc3)C2)cc1 (stereo not given) [SMR000035317] | > 53 µM |
| CN1C(=O)C(=CCC=Nc2ccccc2)C(=O)N(C)C1=O | > 53 µM |
| Cc1ccc2oc(=O)c(CC(=O)c3cccs3)nc2c1 [(3Z)-3-[2-keto-2-(2-thienyl)ethylidene]-6-methyl-4H-1,4-benzoxazin-2-one] | 4.87 µM |
| Cn1c(O)c(N=Nc2ccc([N+](=O)[O-])cc2)sc1=S [MLS002608645] | 1.69 µM |
| CCOC(=O)c1c(NC=C2C(=O)NC(=S)NC2=O)sc2c1CCC2 [ethyl 2-[(E)-(4,6-dioxo-2-sulfanylidene-1,3-diazinan-5-yl)methylideneamino]-5,6-dihydro-4H-cyclopenta[b]thiophene-3-carboxylate] | > 53 µM |
| Clc1ccc(C2=Nc3ncnn3C(c3ccco3)C2)cc1 (stereo not given) | 8.29 µM |
| Oc1csc(=S)n1N=Cc1c(F)cccc1Cl [MLS002919802] | > 53 µM |
| CC1=CC(C)(C(Cl)(Cl)Cl)C(C)C=C1N=O (stereo not given) | > 53 µM |
| CCOC(=O)C1=C(C)N=C(SCC(=O)OC)C(C#N)C1c1ccc(C(=O)OC)cc1 (stereo not given) [MLS000039154] | > 53 µM |
| CC1(C)CC(=O)C(C2C3=C(CC(C)(C)CC3=O)Oc3c(Br)cc(Br)cc32)C(=O)C1 (stereo not given) [5,7-bis(bromanyl)-9-(4,4-dimethyl-2-oxidanyl-6-oxidanylidene-cyclohexen-1-yl)-3,3-dimethyl-4,9-dihydro-2H-xanthen-1-one] | 10.3 µM |
| Cc1cccc(N2C(=O)C(=O)C(C(=O)c3cccs3)C2c2ccc(C(C)C)cc2)n1 (stereo not given) [3-Hydroxy-5-(4-isopropyl-phenyl)-1-(6-methyl-pyridin-2-yl)-4-(thiophene-2-carbonyl)-1,5-dihydro-pyrrol-2-one] | 11.3 µM |
| COc1cc(/C=C2\CCC(C)C3=C(c4cc(OC)c(OC)c(OC)c4)C(C#N)C(=N)OC32)cc(OC)c1OC (stereo not given) | > 53 µM |
| O=C1C=Cc2cc(=C3C=CCC=N3)c(=O)oc2=C1CN1CCN(CCO)CC1 [SMR000298878] | 6.05 µM |
| O=NC(N1CCOCC1)P(=O)(N1CCOCC1)N1CCOCC1 (stereo not given) [bis(4-morpholinyl)phosphoryl-(4-morpholinyl)methanone oxime] | > 53 µM |
| COc1ccc(C(C)N=Nc2ccc([N+](=O)[O-])cc2S(=O)(=O)Nc2ccccc2C(=O)O)c(OC)c1 (stereo not given) [MLS002249507] | 38.6 µM |
| COc1ccc(Cn2cc(O)n(-c3cccc(Cl)c3)c2=S)cc1OC [SMR000564410] | > 53 µM |
| Cc1ccc(-n2c(O)cc(=O)[nH]c2=O)c(C)c1 | > 53 µM |

| Structure (SMILES) | EC50 |
| --- | --- |
| C=CCOc1ccc(C2C(C(=O)c3ccco3)C(=O)C(=O)N2c2nnc(C)s2)cc1 (stereo not given) [3-(furan-2-carbonyl)-4-hydroxy-1-(5-methyl-1,3,4-thiadiazol-2-yl)-2-(4-prop-2-enoxyphenyl)-2H-pyrrol-5-one] | > 53 µM |
| COc1ccc(C2=Nc3ncnn3C(c3ccco3)C2)cc1 (stereo not given) [7-(2-furanyl)-5-(4-methoxyphenyl)-1,7-dihydro-[1,2,4]triazolo[1,5-a]pyrimidine] | 4.53 µM |
| COc1cc(C2C(C(=O)c3ccco3)C(=O)C(=O)N2c2cc(C)on2)cc(Br)c1O (stereo not given) [2-(3-bromanyl-5-methoxy-4-oxidanyl-phenyl)-3-(furan-2-ylcarbonyl)-1-(5-methyl-1,2-oxazol-3-yl)-4-oxidanyl-2H-pyrrol-5-one] | > 53 µM |
| N#CC(C(=O)COC(=O)COc1cccc(Br)c1)c1nc2ccccc2[nH]1 (stereo not given) [MLS000391269] | > 53 µM |
| O=C(O)c1ccc(CN=Nc2cccc(C(F)(F)F)c2)cc1 | > 53 µM |
| Nc1ccc2c(c1)C(N=O)c1ccccc1-2 (stereo not given) [SMR001570622] | > 53 µM |
| COc1ccc(-n2c(O)cc(-c3ccc([N+](=O)[O-])cc3)c2O)cc1 | > 53 µM |
| O=c1c(CN=Nc2ccccc2)c(Sc2nnnn2-c2ccccc2)nc2ccccn12 [3-[(phenylhydrazinylidene)methyl]-2-(1-phenyltetrazol-5-yl)sulfanylpyrido[1,2-a]pyrimidin-4-one] | 10.1 µM |
| CCCC1=Nc2nc(C)nn2C(c2cccnc2)C1C(=O)OCC (stereo not given) [2-methyl-5-propyl-7-(3-pyridinyl)-1,7-dihydro-[1,2,4]triazolo[1,5-a]pyrimidine-6-carboxylic acid ethyl ester] | > 53 µM |
| N#CC(C(=O)c1cccc(F)c1)c1nc2ccccc2s1 (stereo not given) [(2Z)-2-(3H-1,3-benzothiazol-2-ylidene)-3-(3-fluorophenyl)-3-keto-propionitrile] | > 53 µM |
| COc1ccc(C(=O)C2C(=O)C(=O)N(CCN(C)C)C2c2cccnc2)cc1C (stereo not given) [SMR000287983] | > 53 µM |
| COc1ccc(C2c3c(n(C)c(=O)n(C)c3=O)N=C3CC(C)(C)CC(=O)C32)cc1OC (stereo not given) [SMR000291470] | > 53 µM |
| CSCSC1=NC(C)=C(C(C)=O)C(c2ccccc2Cl)C1C#N (stereo not given) [4-(2-chlorophenyl)-5-ethanoyl-6-methyl-2-(methylsulfanylmethylsulfanyl)-1,4-dihydropyridine-3-carbonitrile] | > 53 µM |
| O=C1CC(c2ccccc2)C(c2ccccc2)C1=O (stereo not given) [5-oxidanyl-3,4-diphenyl-cyclopent-2-en-1-one] | > 53 µM |
| CN(C)c1ccc(C=Nn2c(O)csc2=S)c(Cl)c1 [MLS002919800] | > 53 µM |
| CCOc1ccc(C2C(C(=O)c3ccc4c(c3)OCCO4)C(=O)C(=O)N2CCCN2CCOCC2)cc1 (stereo not given) [(4E)-4-[2,3-dihydro-1,4-benzodioxin-6-yl(oxidanyl)methylidene]-5-(4-ethoxyphenyl)-1-(3-morpholin-4-ylpropyl)pyrrolidine-2,3-dione] | > 53 µM |
| CCCCCCc1cc2cc(C(=O)NCc3ccccc3)c(N)oc-2cc1=O [2-amino-6-hexyl-7-oxo-N-(phenylmethyl)-1-benzopyran-3-carboxamide] | 4.2 µM |
| CC1(C)CC(=O)C2CNc3ccccc3N=C2C1 (stereo not given) | > 53 µM |
| Cc1ccccc1COc1ccc(C(=O)C2C(=O)C(=O)N(CCCn3ccnc3)C2c2ccco2)cc1 (stereo not given) | > 53 µM |
| Cc1ccc(-n2c(O)c3n(-c4ccccc4)[nH]c(C(=O)c4ccccc4)c-3c2=O)cc1 | 22.2 µM |

| Structure (SMILES) | EC50 |
| --- | --- |
| CC(=CN=Nc1nc(C)cc(C)n1)Cc1ccc(C(C)C)cc1 [SMR000146220] | > 53 µM |
| COC(=O)c1ccc(C(=O)C(C#N)c2nc3ccccc3s2)cc1 (stereo not given) [4-[(2Z)-2-(3H-1,3-benzothiazol-2-ylidene)-2-cyano-1-oxoethyl]benzoic acid methyl ester] | > 53 µM |
| Cc1cc2c(cc1Br)=NC(=O)C=2NNC(=O)C1CC1c1ccccc1 (stereo not given) [N'-(6-bromo-5-methyl-2-oxo-3-indolyl)-2-phenyl-1-cyclopropanecarbohydrazide] | > 53 µM |
| O=c1cc(Nc2cc(O)n(-c3ccccc3Cl)c2O)[nH]c(=O)[nH]1 [6-[[1-(2-chlorophenyl)-2,5-dioxopyrrolidin-3-yl]amino]-1H-pyrimidine-2,4-dione] | > 53 µM |
| COc1ccc(/C=N/OCC(=O)NNC2=c3cc(Br)ccc3=NC2=O)cc1 [MLS000587830] | > 53 µM |
| CCOc1ccc(C2=Nc3ncnn3C(c3ccccc3)C2)cc1 (stereo not given) | > 53 µM |
| Cc1ccc(-n2[nH]c(C)c(CN=Nc3ccc([N+](=O)[O-])cc3[N+](=O)[O-])c2=O)cc1 [SMR000171521] | > 53 µM |
| O=C(Cc1sc(N=NC=CCc2ccccc2)nc1O)Nc1ccc(Cl)c(Cl)c1 | > 53 µM |
| CC(=O)C1C(C)=NC(=S)NC1c1cc([N+](=O)[O-])ccc1O (stereo not given) [MLS000777581] | > 53 µM |
| CCOc1ccc(C2CC(c3ccc(C)cc3)=Nc3nnnn32)cc1 (stereo not given) | > 53 µM |
| Cc1ccc(C2CC(c3ccccc3)=Nc3nc(-n4c(O)ccc4O)nn32)cc1 (stereo not given) [1-[7-(4-methylphenyl)-5-phenyl-1,7-dihydro-[1,2,4]triazolo[1,5-a]pyrimidin-2-yl]pyrrolidine-2,5-dione] | > 53 µM |
| COC(=O)Cc1sc(=O)[nH]c1Nc1ccc(OC)cc1 [methyl {4-[(4-methoxyphenyl)imino]-2-oxo-1,3-thiazolidin-5-yl}acetate] | > 53 µM |
| COc1ccc(C2=Nc3nnnn3C(c3cccc(OC)c3)C2)cc1 (stereo not given) [MLS000036434] | > 53 µM |
| CCOc1ccc(C2C(C#N)=C3Sc4ccccc4N3C(=N)C2C#N)cc1 (stereo not given) [1-amino-3-(4-ethoxyphenyl)-3H-pyrido[2,1-b][1,3]benzothiazole-2,4-dicarbonitrile] | 8.06 µM |
| CCOC(=O)C1CCCN(c2cc(O)n(-c3ccccc3)c2O)C1 (stereo not given) [ethyl 1-(2,5-dioxo-1-phenylpyrrolidin-3-yl)piperidine-3-carboxylate] | > 53 µM |
| CN1c2ccccc2C(=O)C(C(=S)Nc2ccc(Cl)cc2)S1(=O)=O (stereo not given) [N-(4-chlorophenyl)-4-hydroxy-1-methyl-2,2-dioxo-1,2-dihydro-2lambda~6~,1-benzothiazine-3-carbothioamide] | > 53 µM |
| CCNC(=S)N(CCc1ccc(S(N)(=O)=O)cc1)c1cc(O)n(-c2ccccc2)c1O [1-(2,5-dioxo-1-phenyl-3-pyrrolidinyl)-3-ethyl-1-[2-(4-sulfamoylphenyl)ethyl]thiourea] | 18.5 µM |
| N#Cc1cc2ccccc2nc1SCc1cccnc1 [2-(Pyridin-3-ylmethylsulfanyl)-quinoline-3-carbonitrile] | > 53 µM |
| Cc1cc(C)n(CCC(=O)NNC2=c3cc(Br)ccc3=NC2=O)n1 [MLS000777238] | > 53 µM |
| O=NC1C(=O)N(Cc2c(Cl)cccc2Cl)c2ccccc21 (stereo not given) [(3Z)-1-[(2,6-dichlorophenyl)methyl]-3-hydroxyimino-2-indolone] | 4.67 µM |
